Measurements as given in US20050070519A1, “Cyclisation process for the preparation of c-2 beta-lactam compounds” (priority 2001, published 2005).

Target: T1, BLS (β-lactam synthetase), polyhistidine tagged (Streptomyces clavuligerus, UniProt P0DJQ7)
T1 construct: made in house; host or cells: E. coli BL21(DE3), co-expressed with chaperonin GroELS
T1 sequence (P0DJQ7 1-513): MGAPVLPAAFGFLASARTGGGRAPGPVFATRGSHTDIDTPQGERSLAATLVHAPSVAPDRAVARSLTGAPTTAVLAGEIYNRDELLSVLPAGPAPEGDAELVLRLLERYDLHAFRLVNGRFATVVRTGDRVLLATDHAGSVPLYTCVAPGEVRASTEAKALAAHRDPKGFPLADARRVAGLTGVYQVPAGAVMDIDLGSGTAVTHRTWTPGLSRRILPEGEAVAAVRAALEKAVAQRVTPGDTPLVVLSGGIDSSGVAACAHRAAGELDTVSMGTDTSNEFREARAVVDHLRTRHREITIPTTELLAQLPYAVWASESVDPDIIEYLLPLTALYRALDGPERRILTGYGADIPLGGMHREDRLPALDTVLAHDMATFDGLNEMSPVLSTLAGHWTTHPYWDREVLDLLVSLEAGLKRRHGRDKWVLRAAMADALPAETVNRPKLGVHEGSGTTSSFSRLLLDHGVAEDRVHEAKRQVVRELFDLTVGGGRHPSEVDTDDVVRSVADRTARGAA
Assay: fluorescence detection pre-column derivatised HPLC substrate assay with polyhistidine tagged BLS
Format: biochemical
Text: The bls gene has previously been expressed at relatively low levels using a pET24a(+) construct and purified by an involved two column protocol giving low overall yields (McNaughton, H. J.; Thirkettle, J. E.; Zhang, Z. H.; Schofield, C. J.; Jensen, S. E.; Barton, B.; Greaves, P. J. Chem. Soc., Chem. Commun. 1998, 2325-2326; Bachmann, B. O.; Townsend, C. A. Biochemistry 2000, 39, 11187-11193). To facilitate purification a polyhistidine tagged form of BLS (β-lactam synthetase) was produced by cloning bis into the pET28a(+) vector (from Novagen). […]
The bls gene in the vector pET28a(+) and a plasmid bearing the chaperonin GroELS^13 were simultaneously transformed into E. coli BL21(DE3) for co-expression. […] When the absorbance at 600 nm reached ˜1.0, IPTG was added to a final concentration of 1.0 mM and the cells harvested 16 hours later by centrifugation. […]
The 2-methylated substrate analogue (6) was initially assayed as a substrate for BLS using a fluorescence detection pre-column derivatised HPLC assay based on the work of Kai et al (Kai, M.; Miyazaki, T.; Yamaguchi, M.; Ohkura, Y. J. Chromatogr. 1983, 425-436). […]
Reactions were incubated at 37° C. for 15 minutes and then derivatised. […] Fluorescence was measured at 425 nm against 325 nm excitation. […]

With 2-Methyl CEA the “relative substrate efficiency of the two 2-methyl epimers” value (larger scale incubation, product isolated by HPLC, 1H NMR (500 MHz) analysis) was “both epimers are approximately equally efficient substrates” and the “conversion of 2-methyl CEA (6) to 2-methyl DGPC (9)” value (standard assay conditions: 2 mM substrate, 5 mM ATP, 10 mM MgCl2, pH 9, ca. 74 μg enzyme, 37° C., 15 minutes) was “ca. 50%”.
